Reference: patent US4806532A, “Inhibition of epithelial phosphate transport” (Mayo Foundation for Medical Education and Research, priority 1985, dated 1989)
Values joined by “and” are separate entries in the source; they are usually repeats but may differ in a detail not shown here. Identical values can stand only once. Counter-ions that a name gives are not always drawn.

How the values were obtained:
Na-Pi cotransporter = target: T1, Na-Pi cotransporter (Rattus norvegicus, UniProt Q06496); assay: Reversibility of TPFA inhibition: 32Pi uptake of BBMV after preincubation and washout; type: biochemical
T1 construct: from tissue; host or cells: rat renal cortex, brush border membrane vesicles
T1 sequence (Q06496 1-637): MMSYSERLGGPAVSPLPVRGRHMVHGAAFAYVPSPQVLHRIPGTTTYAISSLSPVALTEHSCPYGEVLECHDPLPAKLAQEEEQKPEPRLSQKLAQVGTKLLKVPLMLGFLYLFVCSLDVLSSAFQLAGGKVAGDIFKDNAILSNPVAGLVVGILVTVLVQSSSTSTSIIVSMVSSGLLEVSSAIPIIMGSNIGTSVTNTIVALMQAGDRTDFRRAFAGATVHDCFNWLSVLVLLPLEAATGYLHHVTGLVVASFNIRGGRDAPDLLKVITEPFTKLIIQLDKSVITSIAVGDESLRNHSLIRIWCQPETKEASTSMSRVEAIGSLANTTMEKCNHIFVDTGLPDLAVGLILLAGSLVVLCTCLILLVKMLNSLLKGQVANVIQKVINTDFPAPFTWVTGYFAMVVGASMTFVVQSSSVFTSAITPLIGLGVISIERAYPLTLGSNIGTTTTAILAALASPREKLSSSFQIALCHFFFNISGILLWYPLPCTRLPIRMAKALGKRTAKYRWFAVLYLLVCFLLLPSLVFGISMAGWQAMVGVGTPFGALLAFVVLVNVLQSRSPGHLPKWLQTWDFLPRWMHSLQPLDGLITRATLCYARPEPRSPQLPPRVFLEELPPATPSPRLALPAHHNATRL
Description: The reversibility of the inhibition of ^32 Pi transport across BBMV by TPFA was explored using the following protocol. […] The suspensions of BBMV were incubated for 10 min at room temperature. At the end of incubation period, incubation mixtures were diluted with 10 ml of ice-cold MTH-medium, resuspended and centrifuged at 35,000×g for 20 min. The supernatant was discarded and BBMV pellet was suspended in MTH-medium and then assayed for Na^+ -gradient-dependent ^32 Pi uptake.

[1] = system: thyroparathyroidectomized (TPTX) rats; assay: Urinary excretion of Pi and other electrolytes after TPFA in vivo; set-up: species or system rat; Phosphate excretion: unit not given here
Description: Surgically thyroparathyroidectomized (TPTX) rats of 180-220 g body wt (Johnson Laboratories, Chicago, IL) were placed in metabolic cages and were fed 15 g of the low phosphate (P =0.07%) diet (ICN, Cleveland, OH) and 25 ml distilled water per day prior to and throughout the study (J. Clin. Invest. 67, 1347 (1981)). The animals were weighed daily. Urine samples (24-hour period) were collected each day for determination of urine volue, creatinine, Pi, Ca^++, Na^+ and K^+. After stabilization of rats on the low phosphate diet for 4 days, the "experimental" group of rats were injected with TPFA (500 mg/kg b wt) intraperitoneally, divided in two daily doses, while the "control" rats received the vehicle only. TPFA for i.p. injection was dissolved in distilled water and the control animals were injected with the same volume of NaCl solution containing the equimolar amount of Na^+. When appropriate, the results were evaluated statistically using student's t-test for either group or paired comparisons. Values of P >0.05 were considered nonsignificant (NS).

[2] = Day 1 (baseline), experimental group, TPTX rats
[3] = Day 2, TPFA 500 mg/kg per day i.p. on day 2 and day 3, TPTX rats
[4] = Day 3, TPFA 500 mg/kg per day i.p. on day 2 and day 3, TPTX rats
[5] = Day 4, after TPFA 500 mg/kg per day i.p. on day 2 and day 3, TPTX rats

O=C(O)P(=O)(O)O [TPFA, Phosphonoformic acid, trisodium salt hexahydrate]
32Pi uptake 120 min, TPFA-preincubated (Na-Pi cotransporter; BBMV preincubated with 5 mM TPFA 10 min, diluted 1:10, washed, Experiments 1 and 2): 326 ± 5 pmoles/mg protein and 293 ± 3 pmoles/mg protein
32Pi uptake 20 sec, TPFA-preincubated (Na-Pi cotransporter; BBMV preincubated with 5 mM TPFA 10 min, diluted 1:10, washed, Experiments 1 and 2, mean ± SEM): 1240 ± 25 pmoles/mg protein and 1128 ± 38 pmoles/mg protein
rate of Na+-gradient-dependent BBMV uptake of Pi after washout of TPFA by dilution (Na-Pi cotransporter; versus control BBMV not exposed to TPFA): indistinguishable from control BBMV
Calcium excretion [1, 2]: 0.3 ± 0.07 mmoles/mg creatinine
Potassium excretion [1, 2]: 7.3 ± 1.0 mmoles/mg creatinine
Sodium excretion [1, 2]: 6.8 ± 1.1 mmoles/mg creatinine
Phosphate excretion ([1]; Day 1 (baseline, before injections on day 2 and 3), experimental group, TPTX rats on low phosphate diet, relative to creatinine, mean ± SEM of 8-9 rats): 11.8 ± 6.0
Phosphate excretion ([1]; Day 2, TPFA 500 mg/kg per day i.p. in two doses on day 2 and day 3, TPTX rats, low phosphate diet, relative to creatinine): 30.8 ± 6.6
Calcium excretion [1, 3]: 0.2 ± 0.09 mmoles/mg creatinine
Potassium excretion [1, 3]: 7.6 ± 1.1 mmoles/mg creatinine
Sodium excretion [1, 3]: 8.0 ± 1.1 mmoles/mg creatinine
Phosphate excretion ([1]; Day 3, TPFA 500 mg/kg per day i.p. in two doses on day 2 and day 3, TPTX rats, significantly increased vs Day 1 (P < 0.025)): 122.1 ± 37.8
Calcium excretion [1, 4]: 0.3 ± 0.2 mmoles/mg creatinine
Potassium excretion [1, 4]: 11.8 ± 3.9 mmoles/mg creatinine
Sodium excretion [1, 4]: 19.4 ± 11.6 mmoles/mg creatinine
Calcium excretion [1, 5]: 0.6 ± 0.5 mmoles/mg creatinine
Phosphate excretion [1, 5]: 79.8 ± 46.9
Potassium excretion [1, 5]: 12.9 ± 5.3 mmoles/mg creatinine
Sodium excretion [1, 5]: 15.1 ± 7.0 mmoles/mg creatinine
urinary excretion of Pi (in words) ([1]; TPFA i.p. in two daily doses, TPTX rats on low phosphate diet, FIG. 3): severalfold increase
urinary excretion of Na+, K+ or calcium (in words) ([1]; TPFA i.p. in two daily doses, TPTX rats, same urine samples): did not change
